Reference: patent US20230114728A1 (Venatorx Pharmaceuticals, Inc., priority 2019, published 2023)
Values after ≈ are worked out from the molar mass of the structure shown. Where two headings read alike, the source gives them in different places.

Key:
E. coli AG100A = assay: Broth microdilution MIC in CAMHB; type: cell-based; details: Escherichia coli, read-out: Minimum Inhibitory Concentration, E. coli AG100A
Method in brief: (§1)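 CLSI broth microdilution in CAMHB: 2-fold compound dilutions inoculated at 2-8×10^5 CFU/mL from 3-5 h log-phase cultures. Incubated at 37 °C for 16-20 h (Enterobacteriaceae, Pseudomonas); MIC read visually as lowest concentration without growth. Strains include hyper-permeable and efflux-deficient mutants.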

[1] = tested on: K. pneumoniae SI-117 producing VIM-1; assay: Broth microdilution MIC in CAMHB; type: cell-based; details: Klebsiella pneumoniae, read-out: Minimum Inhibitory Concentration, K. pneumoniae SI-117
Method in brief: as §1

P. aeruginosa ATCC 27853 = assay: Broth microdilution MIC in CAMHB; type: cell-based; details: Pseudomonas aeruginosa
Method in brief: as §1

P. aeruginosa ATCC 35151 = assay: Broth microdilution MIC in CAMHB; type: cell-based; details: Pseudomonas aeruginosa
Method in brief: as §1

P. aeruginosa PBP3 = molecular target: T1, P. aeruginosa PBP3 (Pseudomonas aeruginosa, UniProt G3XD46); assay: Bocillin-FL fluorescence polarization competition binding assay, P. aeruginosa PBP3; details: fluorescence polarization competition binding assay using Bocillin-FL
T1 construct: made in house
Method in brief: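 Binding of boronic acid inhibitors to purified Pseudomonas aeruginosa (PA01) PBP3 was measured by fluorescence polarization competition with Bocillin-FL, a fluorescent penicillin V. Reactions of 80 μl contained 0.75 μM PBP3 and 0.1 μM Bocillin-FL in 50 mM Hepes (pH 8.0), 300 mM NaCl and 5% (v/v) glycerol, in black 384-well plates. FP (Excitation 490 nm, Emission 520 nm) was read for up to 60 minutes. EC50 is the concentration that halves PBP-bound Bocillin-FL.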

[2] = ATCC27853, MHB, read-out: Minimum Inhibitory Concentration, P. aeruginosa ATCC 27853
[3] = ATCC35151, MHB, hyper-permeable strain, read-out: Minimum Inhibitory Concentration, P. aeruginosa ATCC 35151

T1 sequence (G3XD46 whole entry): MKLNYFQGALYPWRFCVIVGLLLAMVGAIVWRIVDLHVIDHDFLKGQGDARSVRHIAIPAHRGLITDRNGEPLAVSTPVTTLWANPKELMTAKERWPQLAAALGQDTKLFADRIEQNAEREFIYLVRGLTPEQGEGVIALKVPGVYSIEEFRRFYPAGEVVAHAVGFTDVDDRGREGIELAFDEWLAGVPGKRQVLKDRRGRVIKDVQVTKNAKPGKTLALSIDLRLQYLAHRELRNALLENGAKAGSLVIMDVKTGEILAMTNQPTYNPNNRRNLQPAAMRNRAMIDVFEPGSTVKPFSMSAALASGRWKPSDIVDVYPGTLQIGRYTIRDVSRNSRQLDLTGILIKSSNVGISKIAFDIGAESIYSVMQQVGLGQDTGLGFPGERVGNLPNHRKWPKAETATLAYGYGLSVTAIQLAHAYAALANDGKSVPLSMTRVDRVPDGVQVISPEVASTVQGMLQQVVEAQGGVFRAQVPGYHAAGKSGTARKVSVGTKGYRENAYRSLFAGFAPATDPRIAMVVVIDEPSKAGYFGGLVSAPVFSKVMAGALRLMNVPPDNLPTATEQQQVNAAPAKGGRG

Compound | MIC (E. coli AG100A) | MIC [1] | MIC (P. aeruginosa ATCC 27853; [2]) | MIC (P. aeruginosa ATCC 35151; [3]) | P. aeruginosa PBP3 Potency (P. aeruginosa PBP3) | MIC (P. aeruginosa ATCC 27853; ATCC27853, read-out: Minimum Inhibitory Concentration, P. aeruginosa ATCC 27853) | MIC (P. aeruginosa ATCC 35151; ATCC35151, read-out: Minimum Inhibitory Concentration, P. aeruginosa ATCC 35151)
NS(=O)(=O)NC(C(=O)N[C@H]1Cc2ccc(F)c(C(=O)O)c2OB1O)c1ncc(O)cc1F (stereo partly drawn) [Example 43, (3R)-7-fluoro-3-(2-(3-fluoro-5-hydroxypyridin-2-yl)-2-(sulfamoylamino)acetamido)-2-hydroxy-3,4-dihydro-2H-benzo[e][1,2]oxaborinine-8-carboxylic acid] | > 128 µg/mL | > 128 µg/mL | > 128 µg/mL | 2 to 4 µg/mL (≈ 4.24 to 8.47 µM) | C (C represents a potency between 10 and 30 μM) | – | –
CCN1CCN(C(=O)NC(C(=O)N[C@H]2Cc3cccc(C(=O)O)c3OB2O)c2ccc(O)c(NC(=O)c3ccc(O)c(O)c3Cl)c2)C(=O)C1=O (stereo partly drawn) [Example 74, (3R)-3-(2-(3-(2-chloro-3,4-dihydroxybenzamido)-4-hydroxyphenyl)-2-(4-ethyl-2,3-dioxopiperazine-1-carboxamido)acetamido)-2-hydroxy-3,4-dihydro-2H-benzo[e][1,2]oxaborinine-8-carboxylic acid] | 8 to 16 µg/mL (≈ 11.3 to 22.5 µM) | > 128 µg/mL | 8 to 16 µg/mL (≈ 11.3 to 22.5 µM) | 0.5 to 1 µg/mL (≈ 0.704 to 1.41 µM) | D (D represents a potency <10 μM) | – | –
CCN1CCN(C(=O)N[C@@H](C(=O)N[C@H]2Cc3cccc(C(=O)O)c3OB2O)c2cc(O)cc(O)c2)C(=O)C1=O (single isomer, unassigned) [Example 82] | 2 to 4 µg/mL (≈ 3.7 to 7.4 µM) | 32 to 64 µg/mL (≈ 59.2 to 118 µM) | > 128 µg/mL | < 0.25 µg/mL | D (D represents a potency <10 μM) | – | –
N[C@@H](C(=O)N[C@H]1Cc2ccc(F)c(C(=O)O)c2OB1O)c1ccc(OS(=O)(=O)F)cc1 [Example 32, (R)-3-((R)-2-amino-2-(4-((fluorosulfonyl)oxy)phenyl)acetamido)-7-fluoro-2-hydroxy-3,4-dihydro-2H-benzo[e][1,2]oxaborinine-8-carboxylic acid] | > 128 µg/mL | > 128 µg/mL | – | – | A (A represents a potency of >500 μM) | > 128 µg/mL | > 128 µg/mL
N=C(N)NC(C(=O)N[C@H]1Cc2ccc(F)c(C(=O)O)c2OB1O)c1ncc(O)cc1F (stereo partly drawn) [Example 52, (3R)-7-fluoro-3-(2-(3-fluoro-5-hydroxypyridin-2-yl)-2-guanidinoacetamido)-2-hydroxy-3,4-dihydro-2H-benzo[e][1,2]oxaborinine-8-carboxylic acid] | > 128 µg/mL | > 128 µg/mL | > 128 µg/mL | > 128 µg/mL | A (A represents a potency of >500 μM) | – | –
CCN1CCN(C(=O)NC(C(=O)N[C@H]2Cc3cccc(C(=O)O)c3OB2O)c2ccc(C(=O)O)c(OC)c2)C(=O)C1=O (stereo partly drawn) [Example 48, (3R)-3-(2-(4-carboxy-3-methoxyphenyl)-2-(4-ethyl-2,3-dioxopiperazine-1-carboxamido)acetamido)-2-hydroxy-3,4-dihydro-2H-benzo[e][1,2]oxaborinine-8-carboxylic acid] | 8 to 16 µg/mL (≈ 13.7 to 27.5 µM) | > 128 µg/mL | > 128 µg/mL | 0.5 to 1 µg/mL (≈ 0.859 to 1.72 µM) | D (D represents a potency <10 μM) | – | –
NCCN1CCN(C(=O)N[C@@H](C(=O)N[C@H]2Cc3cccc(C(=O)O)c3OB2O)c2ccc(O)cc2F)C(=O)C1=O (single isomer, unassigned) [Example 89] | 2 to 4 µg/mL (≈ 3.59 to 7.18 µM) | 32 to 64 µg/mL (≈ 57.4 to 115 µM) | > 128 µg/mL | 0.5 to 1 µg/mL (≈ 0.897 to 1.79 µM) | D (D represents a potency <10 μM) | – | –
CCN1CCN(C(=O)NC(C(=O)N[C@H]2Cc3ccc(F)c(C(=O)O)c3OB2O)c2nc(N)sc2F)C(=O)C1=O (stereo partly drawn) [Example 18, (3R)-3-(2-(2-amino-5-fluorothiazol-4-yl)-2-(4-ethyl-2,3-dioxopiperazine-1-carboxamido)acetamido)-7-fluoro-2-hydroxy-3,4-dihydro-2H-benzo[e][1,2]oxaborinine-8-carboxylic acid] | 2 to 4 µg/mL (≈ 3.53 to 7.06 µM) | 32 to 64 µg/mL (≈ 56.5 to 113 µM) | > 128 µg/mL | 0.5 to 1 µg/mL (≈ 0.883 to 1.77 µM) | D (D represents a potency <10 μM) | – | –
CCN1CCN(C(=O)NC(C(=O)N[C@H]2Cc3cccc(C(=O)O)c3OB2O)c2ccc(O)cc2OC)C(=O)C1=O (stereo partly drawn) [Example 70, (3R)-3-(2-(4-ethyl-2,3-dioxopiperazine-1-carboxamido)-2-(4-hydroxy-2-methoxyphenyl)acetamido)-2-hydroxy-3,4-dihydro-2H-benzo[e][1,2]oxaborinine-8-carboxylic acid] | 2 to 4 µg/mL (≈ 3.61 to 7.22 µM) | > 128 µg/mL | > 128 µg/mL | 8 to 16 µg/mL (≈ 14.4 to 28.9 µM) | D (D represents a potency <10 μM) | – | –
CCN1CCN(C(=O)N[C@H](C(=O)N[C@H]2Cc3cccc(C(=O)O)c3OB2O)c2cc(Cl)c(O)cc2Cl)C(=O)C1=O (single isomer, unassigned) [Example 92] | > 128 µg/mL | > 128 µg/mL | > 128 µg/mL | 8 to 16 µg/mL (≈ 13.5 to 27 µM) | B (B represents a potency between 30 μM and 500 μM inclusive) | – | –
NCCN1CCN(C(=O)N[C@@H](C(=O)N[C@H]2Cc3cccc(C(=O)O)c3OB2O)c2cc(Cl)c(O)cc2Cl)C(=O)C1=O [Example 90, (R)-3-((R)-2-(4-(2-aminoethyl)-2,3-dioxopiperazine-1-carboxamido)-2-(2,5-dichloro-4-hydroxyphenyl)acetamido)-2-hydroxy-3,4-dihydro-2H-benzo[e][1,2]oxaborinine-8-carboxylic acid] | 32 to 64 µg/mL (≈ 52.6 to 105 µM) | > 128 µg/mL | > 128 µg/mL | 0.5 to 1 µg/mL (≈ 0.822 to 1.64 µM) | D (D represents a potency <10 μM) | – | –
CCN1CCN(C(=O)NC(C(=O)N[C@H]2Cc3cccc(C(=O)O)c3OB2O)c2cccc(NC(=O)c3ccc(O)c(O)c3Cl)c2)C(=O)C1=O (stereo partly drawn) [Example 73, (3R)-3-(2-(3-(2-chloro-3,4-dihydroxybenzamido)phenyl)-2-(4-ethyl-2,3-dioxopiperazine-1-carboxamido)acetamido)-2-hydroxy-3,4-dihydro-2H-benzo[e][1,2]oxaborinine-8-carboxylic acid] | 2 to 4 µg/mL (≈ 2.88 to 5.76 µM) | 8 to 16 µg/mL (≈ 11.5 to 23.1 µM) | 2 to 4 µg/mL (≈ 2.88 to 5.76 µM) | 0.5 to 1 µg/mL (≈ 0.721 to 1.44 µM) | D (D represents a potency <10 μM) | – | –
NCCN1CCN(C(=O)NC(C(=O)N[C@H]2Cc3cccc(C(=O)O)c3OB2O)c2cc(F)c(O)cc2F)C(=O)C1=O (stereo partly drawn) [Example 93, (3R)-3-(2-(4-(2-aminoethyl)-2,3-dioxopiperazine-1-carboxamido)-2-(2,5-difluoro-4-hydroxyphenyl)acetamido)-2-hydroxy-3,4-dihydro-2H-benzo[e][1,2]oxaborinine-8-carboxylic acid] | 2 to 4 µg/mL (≈ 3.48 to 6.95 µM) | 32 to 64 µg/mL (≈ 55.6 to 111 µM) | > 128 µg/mL | 0.5 to 1 µg/mL (≈ 0.869 to 1.74 µM) | D (D represents a potency <10 μM) | – | –
CCN1CCN(C(=O)NC(C(=O)N[C@H]2Cc3cccc(C(=O)O)c3OB2O)c2ccc(O)c(N)c2)C(=O)C1=O (stereo partly drawn) [Example 29, (3R)-3-(2-(3-amino-4-hydroxyphenyl)-2-(4-ethyl-2,3-dioxopiperazine-1-carboxamido)acetamido)-2-hydroxy-3,4-dihydro-2H-benzo[e][1,2]oxaborinine-8-carboxylic acid] | 2 to 4 µg/mL (≈ 3.71 to 7.42 µM) | 32 to 64 µg/mL (≈ 59.3 to 119 µM) | > 128 µg/mL | 0.5 to 1 µg/mL (≈ 0.927 to 1.85 µM) | D (D represents a potency <10 μM) | – | –
NCCN1CCN(C(=O)N[C@H](C(=O)N[C@H]2Cc3cccc(C(=O)O)c3OB2O)c2ccc(O)cc2F)C(=O)C1=O (single isomer, unassigned) [Example 88] | 32 to 64 µg/mL (≈ 57.4 to 115 µM) | > 128 µg/mL | > 128 µg/mL | 2 to 4 µg/mL (≈ 3.59 to 7.18 µM) | C (C represents a potency between 10 and 30 μM) | – | –
CCN1CCN(C(=O)NC(C(=O)N[C@H]2Cc3cccc(C(=O)O)c3OB2O)c2ccc(O)c(NC(C)=O)c2)C(=O)C1=O (stereo partly drawn) [Example 17, (3R)-3-(2-(3-acetamido-4-hydroxyphenyl)-2-(4-ethyl-2,3-dioxopiperazine-1-carboxamido)acetamido)-2-hydroxy-3,4-dihydro-2H-benzo[e][1,2]oxaborinine-8-carboxylic acid] | 8 to 16 µg/mL (≈ 13.8 to 27.5 µM) | > 128 µg/mL | > 128 µg/mL | 2 to 4 µg/mL (≈ 3.44 to 6.88 µM) | D (D represents a potency <10 μM) | – | –
CCN1CCN(C(=O)NC(C(=O)N[C@H]2Cc3cccc(C(=O)O)c3OB2O)c2cccc([N+](=O)[O-])c2)C(=O)C1=O (stereo partly drawn) [Example 75, (3R)-3-(2-(4-ethyl-2,3-dioxopiperazine-1-carboxamido)-2-(3-nitrophenyl)acetamido)-2-hydroxy-3,4-dihydro-2H-benzo[e][1,2]oxaborinine-8-carboxylic acid] | 8 to 16 µg/mL (≈ 14.5 to 28.9 µM) | > 128 µg/mL | > 128 µg/mL | 8 to 16 µg/mL (≈ 14.5 to 28.9 µM) | D (D represents a potency <10 μM) | – | –
